What was measured:
Assay type in all cases: cell-based
[1] = tested on: Caki-2 cells; experiment: CTG (CellTiter-Glo) cell viability assay, Caki-2; details: Homo sapiens, 72 h, 3 day incubation, read-out: CTG Chempartner - Caki-2 3 day: Average external-IC50
Procedure: Compound-mediated viability effect on MOLT-4 and Caki-2 was quantitatively determined using the CellTiter-Glo® Luminescent Cell Viability Assay kit from Promega (Catalog number G7570) following manufacturer's recommended procedures. Briefly, MOLT-4 and Caki-2 cells were seeded into 384 well plates (Grenier Bio-One, Catalog number 781080) with a density of 10,000 cells per well. Compounds were then added to the assay plate with final top concentration of 10 μM and 1:3 dilution series with total of 9 doses. The final DMSO concentration is normalized to 0.2%. The assay plates were incubated at 37° C., for 3 days under 5% CO2. Then the assay plate was equilibrated at room temperature for 10 minutes. To determine cell viability, 30 uL CellTiter Glo reagent was added to each well and the assay plate was centrifuged at 1000 rpm for 30 second, incubated at room temperature for 10 min, and analyzed by detecting the luminescence using a multimode plate reader (EnVision 2105, PerkinElmer). The data was then analyzed by software Prism 7.0 from GraphPad and the dose response curves are fit using a three-parameter logistic equation to calculate IC50.
The letter codes for MOLT-4 IC50 include: A (<0.1 μM); B (0.1-1.0 μM); C (>1.0-3.0 μM); and D (>3.0 μM). The letter codes for Caki-2 IC50 include: A (<0.1 μM); B (0.1-1.0 μM); C (>1.0-10.0 μM); and D (>10.0 μM).

[2] = tested on: MOLT-4 cells; experiment: CTG (CellTiter-Glo) cell viability assay, MOLT-4; details: Homo sapiens, MOLT-4, 72 h, 3 day incubation, read-out: CTG Cell Viability Assay - MOLT-4 3 day: Average external-IC50
How it was run: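 Luminescence from CellTiter-Glo, read after 3 days of compound exposure at 37 °C, gave viability; IC50 values came from three-parameter logistic curves. Cells were plated at 10,000 per well and dosed over nine 1:3 steps topping at 10 μM.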

[3] = target: T1, BCL-XL (Homo sapiens, UniProt Q07817); experiment: Bcl-xL ELISA degradation in MOLT-4 cells, 6 h; details: for DC50: read-out: Bcl-xL ELISA in MOLT-4 degradation 6 h: Mean external-Abs DC50
T1 construct: endogenous in cells; host or cells: MOLT-4
T1 sequence (Q07817 whole entry): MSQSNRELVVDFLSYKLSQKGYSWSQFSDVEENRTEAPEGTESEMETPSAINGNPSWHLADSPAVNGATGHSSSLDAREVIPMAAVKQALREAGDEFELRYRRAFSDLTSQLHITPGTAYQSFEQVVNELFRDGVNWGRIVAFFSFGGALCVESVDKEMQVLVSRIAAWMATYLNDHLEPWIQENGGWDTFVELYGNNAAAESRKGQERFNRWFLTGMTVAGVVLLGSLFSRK
Procedure: The letter codes for BCL-XL DC50 include: A (<0.01 μM); B (0.01-0.1 μM); C (>[…]); D (>0.5-1.0 μM); and E (>1.0 μM). The letter codes for Dmax % include A (>75%); B (50 to 75%); C (<50%).

SMILES	IC50 [2] [nM]	Dmax [3] [%]	DC50 [3] [nM]	IC50 [1] [nM]
Cc1c(-c2ccc(N3CCc4cccc(C(=O)Nc5nc6cccnc6s5)c4C3)nc2C(=O)NS(=O)(=O)CCCCCC(=O)N[C@H](C(=O)N2C[C@H](O)C[C@H]2C(=O)N[C@H](C)c2ccc(C#N)cc2O)C(C)(C)C)cnn1CC1CCCCC1 (single isomer, unassigned) [I-486]	100 to 1000	> 75	10 to 100	> 10000
Cc1cc(N(C)c2ccc(-c3cnn(CC45CC6CC(CC(C6)C4)C5)c3C)c(C(=O)NS(=O)(=O)CCCCCC(=O)N[C@H](C(=O)N3C[C@H](O)C[C@H]3C(=O)N[C@@H](C)c3ccc4c(c3)c(C)nn4C)C(C)(C)C)n2)nnc1Nc1nc2ccccc2s1 (single isomer, unassigned) [I-491]	< 100	> 75	< 10	> 10000
Cc1ncsc1-c1ccc([C@H](C)NC(=O)[C@@H]2C[C@@H](O)CN2C(=O)[C@H](NC(=O)CCCCCCCS(=O)(=O)NC(=O)c2nc(N3CCc4cccc(C(=O)Nc5nc6ccccc6s5)c4C3)ccc2-c2cnn(CC34CC5CC(CC(C5)C3)C4)c2C)C(C)(C)C)cc1 [I-284]	< 100	> 75	< 10	100 to 1000
Cc1ncsc1-c1ccc([C@H](C)NC(=O)[C@@H]2C[C@H](O)CN2C(=O)[C@@H](NC(=O)CCc2ccc(S(=O)(=O)NC(=O)c3nc(N4CCc5cccc(C(=O)Nc6nc7ccccc7s6)c5C4)ccc3-c3cnn(CC4CCCCC4)c3C)cc2)C(C)(C)C)cc1 [I-285]	100 to 1000	50 to 75	100 to 500	1000 to 10000
Cc1ncsc1-c1ccc([C@H](C)NC(=O)[C@@H]2C[C@@H](O)CN2C(=O)[C@@H](NC(=O)C2CCN(c3ccc(S(=O)(=O)NC(=O)c4nc(N5CCc6cccc(C(=O)Nc7nc8ccccc8s7)c6C5)ccc4-c4ccnc(OC(C)C)c4C)cc3)CC2)C(C)(C)C)cc1 [I-300]	100 to 1000	50 to 75	100 to 500	1000 to 10000
Cc1ncsc1-c1ccc([C@H](C)NC(=O)[C@@H]2C[C@@H](O)CN2C(=O)[C@@H](NC(=O)[C@H]2CC[C@H](c3nc(C4CCCN(C(=O)c5nc(N6CCc7cccc(C(=O)Nc8nc9ccccc9s8)c7C6)ccc5-c5cnn(CC6CCCCC6)c5C)C4)no3)CC2)C(C)(C)C)cc1 (some centres unmarked) [I-301]	100 to 1000	50 to 75	> 1000	1000 to 10000
Cc1ncsc1-c1ccc([C@H](C)NC(=O)[C@@H]2C[C@@H](O)CN2C(=O)[C@@H](NC(=O)CCCCCS(=O)(=O)NC(=O)c2nc(N3CCc4cccc(C(=O)NCc5cnco5)c4C3)ccc2-c2cnn(CC3CCCCC3)c2C)C(C)(C)C)cc1 [I-461]	100 to 1000	–	–	> 10000
C#Cc1ccc([C@H](C)NC(=O)[C@@H]2C[C@@H](O)CN2C(=O)[C@@H](NC(=O)CCCCCS(=O)(=O)NC(=O)c2nc(N3CCc4cccc(C(=O)Nc5nc6cccnc6s5)c4C3)ccc2-c2cnn(CC(C)(C)C)c2C)C(C)(C)C)cc1 [I-469]	100 to 1000	–	–	> 10000
C#Cc1ccc([C@H](C)NC(=O)[C@@H]2C[C@@H](O)CN2C(=O)[C@@H](NC(=O)CCCCCS(=O)(=O)NC(=O)c2nc(N3CCc4cccc(C(=O)Nc5nc6ccccc6s5)c4C3)ccc2-c2cnn(CC(C)(C)C)c2C)C(C)(C)C)cc1 [I-470]	< 100	–	–	> 10000

More lines, main results first:

IC50 [2] [nM]	Dmax [3] [%]	DC50 [3] [nM]	SMILES	IC50 [1] [nM]
100 to 1000	> 75	10 to 100	Cc1cc(N(C)c2ccc(-c3cnn(CC45CC6CC(CC(C6)C4)C5)c3C)c(C(=O)NS(=O)(=O)CCCCCC(=O)N[C@H](C(=O)N3C[C@H](O)C[C@H]3C(=O)N[C@H](C)c3ccc4c(c3)c(C)nn4C)C(C)(C)C)n2)nnc1Nc1nc2ccccc2s1 (single isomer, unassigned) [I-492]	> 10000
< 100	> 75	< 10	Cc1ncsc1-c1ccc(CNC(=O)[C@@H]2C[C@@H](O)CN2C(=O)[C@@H](NC(=O)CCc2cccc(S(=O)(=O)NC(=O)c3nc(N4CCc5cccc(C(=O)Nc6nc7ccccc7s6)c5C4)ccc3-c3cnn(CC4CCCCC4)c3C)c2)C(C)(C)C)cc1 [I-283]	1000 to 10000
1000 to 3000	< 50	500 to 1000	Cc1ncsc1-c1ccc([C@H](C)NC(=O)[C@@H]2C[C@@H](O)CN2C(=O)[C@@H](c2cc(OC3CCN(CCNC(=O)c4nc(N5CCc6cccc(C(=O)Nc7nc8ccccc8s7)c6C5)ccc4-c4cnn(CC5CCCCC5)c4C)CC3)no2)C(C)C)cc1 [I-291]	1000 to 10000
100 to 1000	50 to 75	100 to 500	Cc1ncsc1-c1ccc([C@H](C)NC(=O)[C@@H]2C[C@@H](O)CN2C(=O)[C@H](c2cc(OC3CCN(CCNC(=O)c4nc(N5CCc6cccc(C(=O)Nc7nc8ccccc8s7)c6C5)ccc4-c4cnn(CC5CCCCC5)c4C)CC3)no2)C(C)C)cc1 [I-292]	1000 to 10000
1000 to 3000	< 50	500 to 1000	Cc1ncsc1-c1ccc([C@H](C)NC(=O)[C@@H]2C[C@@H](O)CN2C(=O)[C@H](c2cc(OC3CC4(C3)CN(C(=O)c3nc(N5CCc6cccc(C(=O)Nc7nc8ccccc8s7)c6C5)ccc3-c3cnn(CC5CCCCC5)c3C)C4)no2)C(C)C)cc1 [I-293]	1000 to 10000
100 to 1000	50 to 75	10 to 100	Cc1ncsc1-c1ccc([C@H](C)NC(=O)[C@@H]2C[C@@H](O)CN2C(=O)[C@@H](c2cc(OC3CC4(C3)CN(C(=O)c3nc(N5CCc6cccc(C(=O)Nc7nc8ccccc8s7)c6C5)ccc3-c3cnn(CC5CCCCC5)c3C)C4)no2)C(C)C)cc1 [I-294]	1000 to 10000
100 to 1000	50 to 75	10 to 100	Cc1ncsc1-c1ccc([C@H](C)NC(=O)[C@@H]2C[C@H](O)CN2C(=O)[C@@H](NC(=O)C2CCN(c3ccc(S(=O)(=O)NC(=O)c4nc(N5CCc6cccc(C(=O)Nc7nc8ccccc8s7)c6C5)ccc4-c4cnn(CC5CCCCC5)c4C)cc3)CC2)C(C)(C)C)cc1 [I-295]	1000 to 10000
100 to 1000	50 to 75	100 to 500	Cc1ncsc1-c1ccc([C@H](C)NC(=O)[C@@H]2C[C@@H](O)CN2C(=O)[C@@H](NC(=O)C2CCN(c3ccc(S(=O)(=O)NC(=O)c4nc(N5CCc6cccc(C(=O)Nc7nc8ccccc8s7)c6C5)ccc4-c4cnn(CC5CCCCC5)c4C)cc3CC(=O)O)CC2)C(C)(C)C)cc1 [I-296]	1000 to 10000
100 to 1000	< 50	500 to 1000	Cc1ncsc1-c1ccc([C@H](C)NC(=O)[C@@H]2C[C@@H](O)CN2C(=O)[C@@H](NC(=O)CCCCc2ccc(NC(=O)c3nc(N4CCc5cccc(C(=O)Nc6nc7ccccc7s6)c5C4)ccc3-c3cnn(CC4CCCCC4)c3C)cc2)C(C)(C)C)cc1 [I-298]	1000 to 10000
100 to 1000	> 75	100 to 500	Cc1ncsc1-c1ccc([C@H](C)NC(=O)[C@@H]2C[C@@H](O)CN2C(=O)[C@@H](NC(=O)C2CCN(c3ccc(S(=O)(=O)NC(=O)c4nc(N5CCc6cccc(C(=O)Nc7nc8ccccc8s7)c6C5)ccc4-c4cnn(CC5CCCCC5)c4C)cc3)C(=O)C2)C(C)(C)C)cc1 (some centres unmarked) [I-299]	1000 to 10000
1000 to 3000	50 to 75	500 to 1000	Cc1ncsc1-c1ccc([C@H](C)NC(=O)[C@@H]2C[C@@H](O)CN2C(=O)[C@@H](NC(=O)CCCCCS(=O)(=O)NC(=O)c2nc(N3CCc4cccc(C(=O)Nc5nc6ccccc6s5)c4C3)ccc2-c2cccc3c2cnn3C(C)C)C(C)(C)C)cc1 [I-302]	1000 to 10000
100 to 1000	–	–	Cc1csc(NC(=O)c2cccc3c2CN(c2ccc(-c4cnn(CC5CCCCC5)c4C)c(C(=O)NS(=O)(=O)CCCCCC(=O)N[C@H](C(=O)N4C[C@H](O)C[C@H]4C(=O)N[C@@H](C)c4ccc(-c5scnc5C)cc4)C(C)(C)C)n2)CC3)n1 [I-462]	> 10000
1000 to 3000	–	–	C#Cc1ccc(CNC(=O)[C@@H]2C[C@@H](O)CN2C(=O)[C@@H](NC(=O)CCCCCS(=O)(=O)NC(=O)c2nc(N3CCc4cccc(C(=O)Nc5nc6cccnc6s5)c4C3)ccc2-c2cnn(CC(C)(C)C)c2C)C(C)(C)C)cc1 [I-468]	> 10000
100 to 1000	–	–	C#Cc1ccc(CNC(=O)[C@@H]2C[C@@H](O)CN2C(=O)[C@@H](NC(=O)CCCCCS(=O)(=O)NC(=O)c2nc(N(C)c3cc(C)c(Nc4nc5ccccc5s4)nn3)ccc2-c2cnn(CC(C)(C)C)c2C)C(C)(C)C)cc1 [I-472]	> 10000
